Test results from ChEMBL document CHEMBL5338818, “Discovery of the First Potent, Selective, and In Vivo Efficacious Polo-like Kinase 4 Proteolysis Targeting Chimera Degrader for the Treatment of TRIM37-Amplified Breast Cancer” (J Med Chem, 2023).
pIC50: −log10 of the molar value. Calls of active or inactive are those of the source. The calls are words filed in the database; no cut-off is given here.

Tests used:
[1] = molecular target: T1, Protein cereblon/Serine/threonine-protein kinase PLK4 (Homo sapiens, UniProt O00444+Q96SW2); assay: Protac activity at CRBN/PLK4 in human MCF7 cells at 10 uM by Western blot analysis; type: cell-based
[2] = molecular target: T1, Protein cereblon/Serine/threonine-protein kinase PLK4; assay: Protac activity at CRBN/PLK4 in human MCF7 cells at 1 uM incubated for 48 hrs by Western blot analysis; type: cell-based
[3] = molecular target: T1, Protein cereblon/Serine/threonine-protein kinase PLK4; assay: Protac activity at CRBN/PLK4 in human MCF7 cells at 0.1 uM incubated for 48 hrs by Western blot analysis; type: cell-based
[4] = molecular target: T2, Serine/threonine-protein kinase PLK4 (Homo sapiens, UniProt O00444); assay: Inhibition of PLK4 (unknown origin) incubated for 1 hr in presence of kinase tracer 236 by FRET assay
T2 sequence (O00444 whole entry): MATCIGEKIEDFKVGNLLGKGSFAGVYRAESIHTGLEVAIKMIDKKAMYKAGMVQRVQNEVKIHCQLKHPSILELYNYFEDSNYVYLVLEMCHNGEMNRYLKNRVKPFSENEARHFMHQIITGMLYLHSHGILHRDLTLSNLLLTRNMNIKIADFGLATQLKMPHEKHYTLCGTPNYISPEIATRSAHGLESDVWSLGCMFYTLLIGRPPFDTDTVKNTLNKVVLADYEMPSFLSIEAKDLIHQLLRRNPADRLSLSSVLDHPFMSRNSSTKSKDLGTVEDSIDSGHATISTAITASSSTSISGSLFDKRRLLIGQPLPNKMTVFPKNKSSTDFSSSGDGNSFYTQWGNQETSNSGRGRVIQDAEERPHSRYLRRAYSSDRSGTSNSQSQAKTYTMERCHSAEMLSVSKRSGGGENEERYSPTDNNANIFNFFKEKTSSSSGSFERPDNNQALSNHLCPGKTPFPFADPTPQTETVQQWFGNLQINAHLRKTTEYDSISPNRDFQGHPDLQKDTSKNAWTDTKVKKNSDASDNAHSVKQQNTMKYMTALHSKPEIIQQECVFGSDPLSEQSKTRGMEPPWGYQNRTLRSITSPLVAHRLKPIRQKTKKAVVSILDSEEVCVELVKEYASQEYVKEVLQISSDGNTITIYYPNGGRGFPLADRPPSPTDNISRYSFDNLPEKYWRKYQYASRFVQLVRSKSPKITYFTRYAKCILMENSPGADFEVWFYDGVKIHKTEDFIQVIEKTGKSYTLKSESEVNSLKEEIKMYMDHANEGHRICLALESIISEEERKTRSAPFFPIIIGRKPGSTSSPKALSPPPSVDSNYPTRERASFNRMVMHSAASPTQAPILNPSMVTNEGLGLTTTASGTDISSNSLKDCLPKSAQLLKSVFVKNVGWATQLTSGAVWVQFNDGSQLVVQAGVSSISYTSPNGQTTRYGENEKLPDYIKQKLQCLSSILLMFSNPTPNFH

[5] = system: MCF7; assay: Antiproliferative activity against human MCF7 cells incubated for 5 days by CCK-8 assay; settings: MCF7, 120 h
[6] = molecular target: T1, Protein cereblon/Serine/threonine-protein kinase PLK4; assay: Protac activity at CRBN/PLK4 in human MCF7 cells at 10 uM incubated for 48 hrs by Western blot analysis; type: cell-based
[7] = molecular target: T1, Protein cereblon/Serine/threonine-protein kinase PLK4; assay: Protac activity at CRBN/PLK4 in human MCF7 cells at 1 to 10 nM by Western blot analysis; type: cell-based; settings: dose 1-10 nM, time 6-72 hrs, TDE = time-dependent effect

T1 sequence (Q96SW2 whole entry, looked up, one chain of several): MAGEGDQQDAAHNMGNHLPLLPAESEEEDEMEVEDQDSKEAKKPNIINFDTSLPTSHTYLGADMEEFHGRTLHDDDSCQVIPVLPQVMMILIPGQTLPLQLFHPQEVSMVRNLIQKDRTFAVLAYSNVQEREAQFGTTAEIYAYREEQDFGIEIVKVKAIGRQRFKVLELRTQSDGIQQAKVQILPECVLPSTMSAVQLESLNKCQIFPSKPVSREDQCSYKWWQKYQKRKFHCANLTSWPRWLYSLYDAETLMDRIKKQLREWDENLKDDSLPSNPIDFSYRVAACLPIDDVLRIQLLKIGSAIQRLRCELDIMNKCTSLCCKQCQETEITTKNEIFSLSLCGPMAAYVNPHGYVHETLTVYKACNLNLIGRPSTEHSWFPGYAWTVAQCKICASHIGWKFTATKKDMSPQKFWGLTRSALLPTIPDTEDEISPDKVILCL

Row | Activity [1] | Activity [2] [%] | Activity [3] [%] | pIC50 [4] | pIC50 [5] | Activity [6] [%] | Activity [7] | SMILES
1 | inactive | – | – | – | – | – | – | Cc1cc(Nc2nc(NCc3ccc(F)cc3F)nc3c2cnn3C2CCN(C(=O)C3CCN(c4ccc5c(c4)C(=O)N(C4CCC(=O)N(C)C4=O)C5=O)CC3)CC2)n[nH]1 (configuration not stated)
2 | – | 53.1 | 44.6 | 8.82 | 5.67 | 65.8 | Tde | Cc1cc(Nc2nc(NCc3ccc(F)cc3F)nc3c2cnn3C2CCN(C(=O)CCCOc3ccc4c(c3)C(=O)N(C3CCC(=O)NC3=O)C4=O)CC2)n[nH]1 (configuration not stated)
